# Test results: patent publication US11472812B2, “Anti-cancer compounds targeting Ral GTPases and methods of using the same” (The Regents of the University of Colorado, a body corporate, priority 2014, dated 2022)
# Entries after “also recorded” stand apart in the source; their conditions may differ.
# How the values were obtained:
# [1] = system: H2122 human lung cancer cells; assay: Cellular uptake, LC/MS-MS of cell lysates; format: in vitro ADME; conditions: 10 μM, 1-60 min
# Procedure: To quantitate how well the test compounds get into cells, H2122 human lung cancer cells were seeded at 3×10^5 cells per well in 6-well plates and let sit for 16 h. Compounds (10 μM) were individually dosed in triplicate; cells were then collected into 500 μl ice-cold ACN:MeOH:H2O (1:1:1) at different time points (1, 5, 15, 30 and 60 min). Drug concentrations in cell lysates were then determined using LC/MS-MS methods as described with respect to the pharmacokinetic and pharmacodynamic studies in mice, described in detail in Example 5, below.
# [2] = system: H2122 human lung cancer cells; assay: H2122 xenograft tumor growth; format: in vivo, nude mice; conditions: i.p. daily except weekends, initiated 24 h after inoculation; RBC8 50 mg/kg/d; BQU57 and BQU85 5, 10, 20, and 50 mg/kg/d
# Procedure: We next determined compound entry into tumor tissue. To do so, athymic nude mice (Ncr nu/nu; National Cancer Institute, Fredrick, Md.) were received at 5 to 6 weeks of age and were allowed to acclimate for 2 weeks in sterile micro isolator cages with constant temperature and humidity. Mice had free access to food and water. H2122 cells in log-phase growth were harvested on the day of use. Cells were suspended in un-supplemented RPMI 1640 medium and 0.1 mL (2×10^5 cells) was injected s.c. four sites per mice. For H358 xenografts, cells (5×10^6) were mixed with matrigel (20% final concentration) and 0.1 mL was inoculated s.c. per site. After cell inoculation, mice were monitored daily, weighed twice weekly and caliper measurements begun when tumors visible. Tumor volume was calculated by (L×W2)/2, where L is longer measurement of tumor and W is the smaller tumor measurement. Drug treatment started the day after inoculation. Compounds were dissolved in DMSO and injected i.p. daily except weekends at 10/20/50 mg/kg. […] The effect of the Ral inhibitors on xenograft tumor growth was then tested in nude mice. Mice were inoculated subcutaneously with H2122 human lung cancer cells and treated intraperitoneally with 50 mg/kg/d (except weekends) of RBC8 24 h post inoculation.
smiles,measurement,setting,value
"Cn1nc(-c2ccccc2)c2c1OC(N)=C(C#N)C2c1ccc(OC(F)(F)F)cc1 (centres unmarked) [BQU85, 6-amino-1-methyl-3-phenyl-4-(4-(trifluoromethoxy)phenyl)-1,4-dihydropyrano[2,3-c]pyrazole-5-carbonitrile]",cellular uptake,[1],readily get into cells
same,xenograft tumor growth inhibition,[2],dose-dependent growth inhibition effects were observed; also recorded: inhibited xenograft tumor growth
